Source: PMC11087588, “Genetic and functional diversity of β-N-acetylgalactosamine-targeting glycosidases expanded by deep-sea metagenome analysis” (Nature Communications, 2024)

Experiments:
[1] = molecular target: T1, NgaDssm (metagenome, UniProt Z9PL66MBS5); experiment: crystal structure of complex; type: binding; settings: 5 mM ligand in crystallization; active site, oxazolinium intermediate analogue
T1 construct: signal peptide removed; pET-47b(+), E. coli BL21 Star (DE3); His tag cut with HRV3C; monomer
T1 sequence (Z9PL66MBS5 4-542): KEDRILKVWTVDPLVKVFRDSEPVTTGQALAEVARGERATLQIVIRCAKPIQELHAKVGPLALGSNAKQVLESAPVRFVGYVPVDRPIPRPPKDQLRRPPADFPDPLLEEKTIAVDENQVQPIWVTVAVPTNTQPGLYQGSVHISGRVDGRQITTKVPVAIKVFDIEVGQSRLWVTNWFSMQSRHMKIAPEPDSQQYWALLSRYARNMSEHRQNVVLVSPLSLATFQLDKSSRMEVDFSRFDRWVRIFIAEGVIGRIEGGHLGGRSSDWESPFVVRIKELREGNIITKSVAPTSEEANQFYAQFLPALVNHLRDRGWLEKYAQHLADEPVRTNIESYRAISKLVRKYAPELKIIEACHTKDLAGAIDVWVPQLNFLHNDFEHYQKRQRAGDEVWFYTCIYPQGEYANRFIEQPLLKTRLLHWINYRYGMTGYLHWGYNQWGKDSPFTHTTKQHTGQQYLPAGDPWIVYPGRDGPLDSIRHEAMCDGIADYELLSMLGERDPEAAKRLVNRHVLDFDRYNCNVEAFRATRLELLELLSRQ

[2] = molecular target: T2, NgaP2 (Paenibacillus sp. TS12, UniProt A0AAT8XUB3); experiment: crystal structure of complex; type: binding; settings: 5 mM ligand in crystallization; active site, oxazolinium intermediate analogue
T2 construct: cloned from genomic DNA, pET-47b(+), E. coli BL21 Star (DE3); His tag cut with HRV3C; monomer; not the GH123 NgaP of the same strain
T2 sequence (A0AAT8XUB3 4-581): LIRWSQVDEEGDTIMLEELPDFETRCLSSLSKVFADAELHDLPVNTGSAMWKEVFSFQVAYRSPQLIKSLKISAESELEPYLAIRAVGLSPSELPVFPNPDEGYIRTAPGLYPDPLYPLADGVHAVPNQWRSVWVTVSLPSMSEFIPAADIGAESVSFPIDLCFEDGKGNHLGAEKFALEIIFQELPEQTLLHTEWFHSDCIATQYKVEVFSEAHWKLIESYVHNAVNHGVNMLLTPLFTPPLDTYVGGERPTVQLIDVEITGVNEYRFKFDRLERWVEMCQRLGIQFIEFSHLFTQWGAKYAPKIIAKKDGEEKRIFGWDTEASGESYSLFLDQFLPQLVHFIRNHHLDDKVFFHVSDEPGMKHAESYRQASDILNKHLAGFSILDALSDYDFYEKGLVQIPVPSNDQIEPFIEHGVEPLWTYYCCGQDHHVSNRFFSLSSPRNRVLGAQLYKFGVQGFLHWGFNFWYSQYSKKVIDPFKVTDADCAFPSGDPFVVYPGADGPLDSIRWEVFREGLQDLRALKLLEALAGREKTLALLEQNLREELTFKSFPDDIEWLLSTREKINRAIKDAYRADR

Question: CC1=N[C@@H]2[C@@H](O)[C@@H](O)[C@@H](CO)O[C@@H]2S1 [GalNAc-thiazoline] was tested. Which “crystal structure of complex” value [1] did it give?
Answer: The value was “the structures of the NgaAt, NgaDssm, and NgaP2 complexes with GalNAc-thiazoline were successfully characterized”.

Question: What about the “crystal structure of complex” value [2] of the same compound?
Answer: Its value is “the structures of the NgaAt, NgaDssm, and NgaP2 complexes with GalNAc-thiazoline were successfully characterized”.
